Activity calls are given as the source filed them. Rule as the data show it: actives have a measured IC50 and inactives only a lower limit.
Target: Envelope glycoprotein gp160 (Human immunodeficiency virus 1, UniProt Q6QLK5)
Assay: inhibitors of HIV fusion peptide binding, primary screen, biochemical, uHTS, fluorescence dequenching (AID 1986)

Sequence of Envelope glycoprotein gp160 (Q6QLK5 whole entry, the tested form may be a part): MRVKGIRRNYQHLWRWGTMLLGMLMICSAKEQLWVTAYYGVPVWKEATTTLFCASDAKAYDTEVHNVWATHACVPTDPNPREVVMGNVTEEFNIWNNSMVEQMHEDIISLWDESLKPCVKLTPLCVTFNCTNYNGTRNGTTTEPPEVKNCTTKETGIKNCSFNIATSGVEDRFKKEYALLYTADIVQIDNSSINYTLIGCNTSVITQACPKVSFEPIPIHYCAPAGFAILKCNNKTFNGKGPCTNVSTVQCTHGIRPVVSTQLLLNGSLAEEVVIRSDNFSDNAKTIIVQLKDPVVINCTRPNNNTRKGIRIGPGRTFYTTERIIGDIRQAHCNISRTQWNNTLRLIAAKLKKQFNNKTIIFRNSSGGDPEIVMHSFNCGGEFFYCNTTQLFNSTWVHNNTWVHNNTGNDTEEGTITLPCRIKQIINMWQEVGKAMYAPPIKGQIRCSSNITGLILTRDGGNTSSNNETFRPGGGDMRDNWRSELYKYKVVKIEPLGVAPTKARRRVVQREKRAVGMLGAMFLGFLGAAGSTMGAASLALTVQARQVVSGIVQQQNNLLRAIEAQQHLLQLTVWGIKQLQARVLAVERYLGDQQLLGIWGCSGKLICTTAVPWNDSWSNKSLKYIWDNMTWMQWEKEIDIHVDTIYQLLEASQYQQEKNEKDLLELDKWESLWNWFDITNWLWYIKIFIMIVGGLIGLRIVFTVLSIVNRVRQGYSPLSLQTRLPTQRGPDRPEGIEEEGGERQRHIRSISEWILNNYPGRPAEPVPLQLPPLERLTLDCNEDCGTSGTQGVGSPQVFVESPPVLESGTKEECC

**Q.** O=C(O)C1Nc2c(cccc2C(F)(F)F)C2C=CCC12 (stereo not given) was tested. Which IC50 did it give?
**A.** 12.7 µM (active)

**Q.** For O=C(O)c1[nH]c2ccccc2c1C(c1cc(Cl)cc([N+](=O)[O-])c1O)c1c(C(=O)O)[nH]c2ccccc12, which IC50 is on record?
**A.** 2.55 µM (active)

**Q.** For CCC(Sc1nc2ccsc2c(=O)n1Cc1ccc(C(=O)O)cc1)C(=O)Nc1ccc(C)c(Cl)c1 (stereo not given), which IC50 is on record?
**A.** 20 µM (active)

**Q.** For COc1cc(/C=N/NC(=O)C(Cc2c[nH]c3ccccc23)NC(=O)OCc2ccccc2)cc([N+](=O)[O-])c1O (stereo not given), which IC50 is on record?
**A.** 17.2 µM (active)

**Q.** Which IC50 does the source give for COc1cc(/C=N/NS(=O)(=O)c2ccc3ccccc3c2)ccc1OCc1ccc(C(=O)O)cc1 here?
**A.** 27 µM (active)
